Consider 9 compounds from patent US9328093B2, “Selective inhibitors of ubiquitin specific protease 7, the pharmaceutical compositions thereof and their therapeutic applications” (HYBRIGENICS SA, priority 2010, dated 2016).

For orientation: IC50 means the concentration at which inhibition is half-maximal. A lower IC50 goes with greater potency in that assay.

In the assay the target is T1, USP7 (Homo sapiens, UniProt Q93009).
T1 construct: Full-length wild-type human USP7 and its catalytic mutant (cysteine 223 replaced by alanine, C223A) were produced as N-terminally His-tagged fusions; His (N); made in house; host or cells: Spodoptera frugiperda Sf9 (or High Five) insect cells, baculovirus pFastBac-HT-B
Nature of the assay: USP7 activity assay (Ub-AMC substrate). In kind it is biochemical. The following applies: Ub-AMC 300 nM, USP7 100 pM, 30 min pre-incubation. From the text:
The cDNA encoding USP7 was obtained by PCR amplification from placenta mRNA. USP7 cDNA was subcloned by PCR into a baculovirus expression vector (pFastBac-HT; Invitrogen). Full-length wild-type human USP7 and its catalytic mutant (cysteine 223 replaced by alanine, C223A) were produced as N-terminally His-tagged fusions in Spodoptera frugiperda cells (Sf9, Invitrogen), using the Bac-to-Bac Baculovirus system from Invitrogen according to the manufacturer's instructions. pFastBac-HT-B-USP7 was used to transform DH10bac cells (Invitrogen), and blue/white selection was carried out on X-gal/IPTG agar plates. Bacmid DNA was prepared by an alkaline lysis procedure. The integrity of the bacmid minipreps and their orientation were checked by PCR, using generic and specific primers. Sf9 insect cells were cultured in InsectXpress medium (Cambrex) at 27° C. and transfected with the corresponding bacmid, using GeneShuttle 40 (Q-BIOgen). Viruses were recovered in the supernatant 72 h after transfection. Viruses were amplified by infecting insect cells (Sf9 or High Five cells; invitrogen) in 50 ml InsectXpress medium in a 150 cm^2 cell culture flask with 500 μl of the supernatant from transfected Sf9 cells. Following the second round of amplification, infected cells were recovered by rapid SDS lysis, boiled for 5 min at 100° C., sonicated briefly and centrifuged for 20 min at 14,000 g. Expression levels in infected Sf9 cells were compared with those in uninfected cells. Fusion proteins were then allowed to bind to TALON beads (BD Biosciences, TALON metal affinity resin) for 30 min at 4° C. with gentle rocking. Beads were extensively washed (50 mM sodium phosphate buffer pH 7.0, 500 mM NaCl, 10 mM Imidazole, 0.5% Triton X-100 and 10% glycerol) and bound proteins were eluted in wash buffer supplemented with 250 mM Imidazole (Sigma). Eluted fractions were resolved on 4-12% NuPAGE gels (Novex, Invitrogen). Fractions containing high concentrations of purified proteins (purity >95%) were dialyzed (20 mM Tris HCl pH 7.6, 200 mM NaCl, 1 mM DTT, 1 mM EDTA and 10% glycerol) were aliquoted and snap frozen in liquid nitrogen before storage at −80° C.
USP7 was diluted in USP buffer (50 mM Tris HCl; 0.5 mM EDTA; 5 mM DTT; 0.01% Triton X-100; Bovine Serum Albumin 0.05 mg·ml^−1 pH7.6). Compounds stocks (10 mM) were stored at −20° C. in DMSO. Compounds were tested at different concentrations: from 200 μM to 91 nM.
Reactions were performed as duplicates in Black 384 well plates (small volumes microplates; Greiner; 10 μl final reaction volume). The substrate concentration for USP7 was 300 nM Ub-AMC (Chem. Biol., 2003, 10, p. 837-846) (Boston Biochem). The concentrations of the enzyme (USP7) in specificity assays was 100 pM. The concentrations were determined in order to perform specificity assays under initial velocities at fixed substrate concentration. Compounds were pre-incubated with enzymes for 30 minutes at 25° C. Reactions were initiated by addition of substrate to the plates containing the enzymes (+/− compounds) diluted in assay buffer. Reactions were incubated for 60 minutes at 37° C. Reactions were stopped by adding acetic acid (100 mM final). Readings were performed on a Pherastar Fluorescent Reader (BMG). λ
Emission 380 nm; λ Excitation=460 nm. Data (mean values +/− standard deviation) were analyzed as % of control (no compound) and plotted as percentage versus the Log of the compound concentration using GraphPad (Prism). Data were fitted to a sigmoidal model (variable slope).
In turn, `CN1CCCC1CCNC(=O)c1ccc2c(Cl)c3c(nc2c1)CCCC3` (stereo not drawn) [Example 17, 9-chloro-N-(2-(1-methylpyrrolidin-2-yl)ethyl)-5,6,7,8-tetrahydroacridino-3-carboxamide] showed a half-maximal inhibitory concentration (IC50) of 13.7 µM.

Consider `O=C(NCc1cccc(CN2CCCC2)c1)c1ccc2c(Cl)c3c(nc2c1)CCCC3` [Example 18, 9-chloro-N-(3-(pyrrolidin-1-ylmethyl)benzyl)-5,6,7,8-tetrahydroacridine-3-carboxamide], for which the IC50 was determined as 18.3 µM. This IC50 and that of the compound before are within 1.5-fold of each other.

`O=C(Nc1cccc(CN2CCCC2)c1)c1ccc2c(Cl)c3c(nc2c1)CCCC3` [Example 19, 9-chloro-N-(3-(pyrrolidin-1-ylmethyl)phenyl)-5.6,7,8-tetrahydroacridine-3-carboxamide] showed an IC50 of 8.2 µM. Against the preceding compound, the IC50 is about 2.2-fold lower.

In turn, `CC1CCCCN1CCCNC(=O)c1ccc2c(Cl)c3c(nc2c1)CCCC3` (stereo not drawn) [Example 20, 9-chloro-N-(3-(2-methylpiperidin-1-yl)propyl)-516,7,8-tetrahydroacridine-3-carboxamide] registered an IC50 of 45.5 µM.

Compound `O=C(NCc1ccc(CN2CCCC2)cc1)c1ccc2c(Cl)c3c(nc2c1)CCCC3` [Example 21, 9-chloro-N-(4-(pyrrolidin-1-ylmethyl)benzyl)-5,6,7,8-tetrahydroacridine-3-carboxamide] came in with an IC50 of 16.3 µM. Compared with the last compound, the IC50 is about 2.8-fold lower.

Turning to `COc1ccc(CN2CCC(CNC(=O)c3ccc4c(Cl)c5c(nc4c3)CCCC5)CC2)cc1` [Example 22, 9-chloro-N-((1-(4-methoxybenzyl)piperidin-4-yl)methyl)-5,6,7,8-tetrahydroacridine-3-carboxamide], inhibition was half-maximal at 27.4 µM (IC50).

In turn, `CN(C)c1ccc(CN2CCC(CNC(=O)c3ccc4c(Cl)c5c(nc4c3)CCCC5)CC2)cc1` [Example 23] registered an IC50 of 33.1 µM.

As for `O=C(NCC1CCNCC1)c1ccc2c(Cl)c3c(nc2c1)CCCC3` [Example 24, 9-chloro-N-((piperidin-4-yl)methyl)-5,6,7,8-tetrahydroacridine-3-carboxamide], the IC50 was 45.2 µM.

As to `O=C(NCC(CN1CCCC1)C(O)c1ccccc1)c1ccc2c(Cl)c3c(nc2c1)CCCC3` (stereo not drawn) [Example 25, 9-chloro-N-(3-hydroxy-3-phenyl-2-pyrrolidin-1-ylmethylpropyl)-5,6,7,8-tetrahydroacridine-3-carboxamide], the IC50 worked out at 59.5 µM.
